Our source for the dTm values is publication PMC12136037, “Type II kinase inhibitors that target Parkinson’s disease–associated LRRK2” (Science Advances, 2025).

Holding throughout (assay): DSF 100 kinase selectivity screen;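 further: compound tested at 20 µM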
Holding throughout (type): binding

In assay [1] the target is T1, ~100 representative kinases (Homo sapiens, UniProt Q8TF76).
T1 construct: Recombinant protein kinase domains with a concentration of 2 μM
T1 sequence (Q8TF76 1-798): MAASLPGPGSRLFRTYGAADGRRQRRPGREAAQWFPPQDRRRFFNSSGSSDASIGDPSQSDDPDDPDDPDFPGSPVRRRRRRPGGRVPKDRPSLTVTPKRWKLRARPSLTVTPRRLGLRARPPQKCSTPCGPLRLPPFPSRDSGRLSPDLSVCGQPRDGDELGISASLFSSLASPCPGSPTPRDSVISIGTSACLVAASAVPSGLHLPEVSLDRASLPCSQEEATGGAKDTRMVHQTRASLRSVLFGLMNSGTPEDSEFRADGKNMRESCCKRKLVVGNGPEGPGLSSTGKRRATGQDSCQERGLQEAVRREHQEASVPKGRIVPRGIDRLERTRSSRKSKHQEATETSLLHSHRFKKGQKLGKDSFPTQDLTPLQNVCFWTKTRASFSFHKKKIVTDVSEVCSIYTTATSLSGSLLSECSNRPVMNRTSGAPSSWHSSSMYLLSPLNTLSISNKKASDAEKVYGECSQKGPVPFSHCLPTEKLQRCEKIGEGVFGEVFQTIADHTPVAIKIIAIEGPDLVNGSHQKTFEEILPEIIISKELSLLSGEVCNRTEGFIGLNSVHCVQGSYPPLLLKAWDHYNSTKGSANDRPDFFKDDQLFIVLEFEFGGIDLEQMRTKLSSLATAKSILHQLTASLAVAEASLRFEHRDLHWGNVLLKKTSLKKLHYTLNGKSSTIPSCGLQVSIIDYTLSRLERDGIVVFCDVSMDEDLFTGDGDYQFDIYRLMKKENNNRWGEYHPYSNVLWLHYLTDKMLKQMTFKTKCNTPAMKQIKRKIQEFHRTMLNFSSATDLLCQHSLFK
The conditions noted are these: protein GSG2; average of three replicates. How it is done:
(§1) Recombinant protein kinase domains with a concentration of 2 μM were mixed with a 20 μM compound solution in dimethyl sulfoxide (DMSO), 20 mM Hepes (pH 7.5), and 500 mM NaCl. SYPRO Orange (5000×, Invitrogen) was added as a fluorescence probe (1μl/ml). Subsequently, temperature-dependent protein unfolding profiles were measured using the QuantStudio 5 realtime PCR machine (Thermo Fisher Scientific, Waltham, MA, USA). […] The temperature was raised with a step rate of 3°C/min. […] Differences in melting temperature are given as ΔTm values in degrees Celsius. […]

Assay [2] deals with T2, ~100 representative kinases (Homo sapiens, UniProt Q14680).
T2 construct: Recombinant protein kinase domains with a concentration of 2 μM
Conditions: protein MELK; average of three replicates. As to the method:
as §1

Assay [3] has as its target T3, ~100 representative kinases (Homo sapiens, UniProt O43293).
T3 construct: Recombinant protein kinase domains with a concentration of 2 μM
Conditions: Protein DAPK3; average of three replicates. As to the method:
as §1

Assay [4] concerns the target T4, ~100 representative kinases (Homo sapiens, UniProt O94768).
T4 construct: Recombinant protein kinase domains with a concentration of 2 μM
T4 sequence (O94768 1-372): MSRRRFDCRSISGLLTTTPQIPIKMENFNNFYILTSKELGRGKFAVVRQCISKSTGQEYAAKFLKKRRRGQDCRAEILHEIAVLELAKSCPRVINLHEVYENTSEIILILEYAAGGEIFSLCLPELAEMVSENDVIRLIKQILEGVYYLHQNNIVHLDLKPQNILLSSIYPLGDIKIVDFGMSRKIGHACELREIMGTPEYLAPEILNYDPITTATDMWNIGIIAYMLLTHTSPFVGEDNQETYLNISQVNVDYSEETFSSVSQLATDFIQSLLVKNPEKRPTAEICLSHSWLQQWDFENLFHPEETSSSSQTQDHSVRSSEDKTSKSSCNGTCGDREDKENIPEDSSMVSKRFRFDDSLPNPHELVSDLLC
The conditions noted are these: Protein STK17B; DSF; average of three replicates. How it is done: as §1

Assay [5] addresses T5, ~100 representative kinases (Homo sapiens, UniProt Q13557).
T5 construct: Recombinant protein kinase domains with a concentration of 2 μM
The conditions noted are these: Protein CAMK2D; average of three replicates. How it is done:
as §1

The target in assay [6] is T6, ~100 representative kinases (Homo sapiens, UniProt Q86V86).
T6 construct: Recombinant protein kinase domains with a concentration of 2 μM
Conditions: protein PIM3; average of three replicates. How it is done:
as §1

Assay [7] deals with T7, ~100 representative kinases (Homo sapiens, UniProt Q15418).
T7 construct: Recombinant protein kinase domains with a concentration of 2 μM
The conditions noted are these: Protein RPS6KA1; DSF; average of three replicates. As to the method:
as §1

The target in assay [8] is T8, ~100 representative kinases (Homo sapiens, UniProt O94804).
T8 construct: Recombinant protein kinase domains with a concentration of 2 μM
The conditions noted are these: Protein STK10; DSF; average of three replicates. As to the method:
as §1

For assay [9], the target named is T9, ~100 representative kinases (Homo sapiens, UniProt O15075).
T9 construct: Recombinant protein kinase domains with a concentration of 2 μM
The conditions noted are these: Protein DCAMKL1; average of three replicates. How it is done:
as §1

For assay [10], the target named is T10, ~100 representative kinases (Homo sapiens, UniProt O96017).
T10 construct: Recombinant protein kinase domains with a concentration of 2 μM
The conditions noted are these: Protein CHEK2; average of three replicates. As to the method:
as §1

In assay [11] the target is T11, ~100 representative kinases (Homo sapiens, UniProt P53779).
T11 construct: Recombinant protein kinase domains with a concentration of 2 μM
The conditions noted are these: protein MAPK10; average of three replicates. How it is done:
as §1

In assay [12] the target is T12, ~100 representative kinases (Homo sapiens, UniProt Q2M2I8).
T12 construct: Recombinant protein kinase domains with a concentration of 2 μM
The conditions noted are these: Protein AAK1; average of three replicates. As to the method:
as §1

Assay [13] concerns the target T13, ~100 representative kinases (Homo sapiens, UniProt Q13043).
T13 construct: Recombinant protein kinase domains with a concentration of 2 μM
T13 sequence (Q13043 1-487): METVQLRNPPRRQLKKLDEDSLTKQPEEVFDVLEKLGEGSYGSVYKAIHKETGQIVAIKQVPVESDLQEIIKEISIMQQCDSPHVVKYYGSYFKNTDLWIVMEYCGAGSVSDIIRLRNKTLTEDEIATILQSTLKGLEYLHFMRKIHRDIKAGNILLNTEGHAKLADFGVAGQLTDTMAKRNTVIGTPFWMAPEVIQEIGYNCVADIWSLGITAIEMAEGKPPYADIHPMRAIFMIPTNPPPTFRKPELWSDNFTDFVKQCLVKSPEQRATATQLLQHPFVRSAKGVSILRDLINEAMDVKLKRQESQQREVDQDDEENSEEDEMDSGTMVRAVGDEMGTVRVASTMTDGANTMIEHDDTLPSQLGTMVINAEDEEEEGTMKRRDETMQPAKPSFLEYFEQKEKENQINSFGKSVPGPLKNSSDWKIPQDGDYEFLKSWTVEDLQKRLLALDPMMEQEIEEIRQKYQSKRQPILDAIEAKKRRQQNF
The conditions noted are these: Protein STK4; DSF; average of three replicates. As to the method: as §1

Assay [14] has as its target T14, ~100 representative kinases (Homo sapiens, UniProt P45984).
T14 construct: Recombinant protein kinase domains with a concentration of 2 μM
The conditions noted are these: protein MAPK9; average of three replicates. How it is done: as §1

In assay [15] the target is T15, ~100 representative kinases (Homo sapiens, UniProt P19784).
T15 construct: Recombinant protein kinase domains with a concentration of 2 μM
The conditions noted are these: Protein CK2A2; average of three replicates. As to the method: as §1

T5 sequence (Q13557 whole entry, the tested form may be a part): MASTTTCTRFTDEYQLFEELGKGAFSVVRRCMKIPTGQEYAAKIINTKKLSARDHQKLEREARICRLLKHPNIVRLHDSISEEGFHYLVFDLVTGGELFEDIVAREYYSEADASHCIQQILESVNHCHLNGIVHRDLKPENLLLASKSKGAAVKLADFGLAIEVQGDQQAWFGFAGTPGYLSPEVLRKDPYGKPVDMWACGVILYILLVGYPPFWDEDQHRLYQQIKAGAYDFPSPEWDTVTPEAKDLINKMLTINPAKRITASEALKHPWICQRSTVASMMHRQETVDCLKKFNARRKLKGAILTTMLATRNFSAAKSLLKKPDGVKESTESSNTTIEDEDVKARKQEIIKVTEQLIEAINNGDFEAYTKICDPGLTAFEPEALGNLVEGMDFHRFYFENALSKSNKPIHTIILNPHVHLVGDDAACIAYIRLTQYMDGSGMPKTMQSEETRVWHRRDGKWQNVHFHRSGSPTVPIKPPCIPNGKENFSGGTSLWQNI
T7 sequence (Q15418 whole entry, the tested form may be a part): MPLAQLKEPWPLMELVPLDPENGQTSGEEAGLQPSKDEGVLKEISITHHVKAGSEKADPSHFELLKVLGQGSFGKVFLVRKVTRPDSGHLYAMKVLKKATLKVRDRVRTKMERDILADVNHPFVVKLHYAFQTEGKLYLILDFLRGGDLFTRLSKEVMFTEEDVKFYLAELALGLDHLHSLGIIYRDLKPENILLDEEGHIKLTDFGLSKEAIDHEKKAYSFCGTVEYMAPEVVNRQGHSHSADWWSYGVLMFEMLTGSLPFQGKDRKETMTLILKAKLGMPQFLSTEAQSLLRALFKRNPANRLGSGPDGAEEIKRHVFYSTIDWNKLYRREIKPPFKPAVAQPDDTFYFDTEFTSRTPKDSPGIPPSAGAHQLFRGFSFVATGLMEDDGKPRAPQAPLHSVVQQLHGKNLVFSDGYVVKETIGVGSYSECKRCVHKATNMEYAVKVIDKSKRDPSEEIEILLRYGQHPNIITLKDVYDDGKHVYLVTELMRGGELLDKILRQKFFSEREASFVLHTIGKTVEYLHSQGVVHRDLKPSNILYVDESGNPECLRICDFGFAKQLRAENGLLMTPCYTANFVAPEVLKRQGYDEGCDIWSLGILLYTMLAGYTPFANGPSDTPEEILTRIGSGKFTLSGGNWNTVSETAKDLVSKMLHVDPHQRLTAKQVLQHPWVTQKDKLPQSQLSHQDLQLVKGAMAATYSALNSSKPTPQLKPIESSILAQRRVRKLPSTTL
T2 sequence (Q14680 whole entry, the tested form may be a part): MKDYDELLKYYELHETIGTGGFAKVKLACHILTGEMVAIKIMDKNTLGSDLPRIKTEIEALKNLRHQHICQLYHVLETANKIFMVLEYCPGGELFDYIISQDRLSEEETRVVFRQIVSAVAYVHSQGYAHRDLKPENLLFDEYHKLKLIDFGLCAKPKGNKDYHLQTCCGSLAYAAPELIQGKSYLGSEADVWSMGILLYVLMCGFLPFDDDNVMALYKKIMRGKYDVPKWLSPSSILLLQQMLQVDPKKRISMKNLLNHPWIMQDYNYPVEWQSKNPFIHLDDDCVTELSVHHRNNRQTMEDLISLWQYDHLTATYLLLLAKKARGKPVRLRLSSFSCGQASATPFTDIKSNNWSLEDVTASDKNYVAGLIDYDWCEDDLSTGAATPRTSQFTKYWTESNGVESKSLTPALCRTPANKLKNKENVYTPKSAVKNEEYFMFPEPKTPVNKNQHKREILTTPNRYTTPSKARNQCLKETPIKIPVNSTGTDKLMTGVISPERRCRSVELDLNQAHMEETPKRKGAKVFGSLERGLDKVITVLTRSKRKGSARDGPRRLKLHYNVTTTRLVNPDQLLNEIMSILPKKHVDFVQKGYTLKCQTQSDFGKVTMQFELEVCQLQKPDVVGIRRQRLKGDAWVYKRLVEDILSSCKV
T15 sequence (P19784 whole entry, the tested form may be a part): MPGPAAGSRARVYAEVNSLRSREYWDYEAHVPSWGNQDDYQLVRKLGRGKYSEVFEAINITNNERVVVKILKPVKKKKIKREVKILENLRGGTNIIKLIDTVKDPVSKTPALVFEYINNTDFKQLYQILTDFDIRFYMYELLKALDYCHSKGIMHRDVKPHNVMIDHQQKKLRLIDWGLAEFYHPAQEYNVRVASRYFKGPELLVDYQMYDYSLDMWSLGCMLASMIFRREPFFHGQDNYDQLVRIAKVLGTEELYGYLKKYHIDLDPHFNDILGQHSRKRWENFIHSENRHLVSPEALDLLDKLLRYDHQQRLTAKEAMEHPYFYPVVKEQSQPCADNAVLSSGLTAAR
T10 sequence (O96017 whole entry, the tested form may be a part): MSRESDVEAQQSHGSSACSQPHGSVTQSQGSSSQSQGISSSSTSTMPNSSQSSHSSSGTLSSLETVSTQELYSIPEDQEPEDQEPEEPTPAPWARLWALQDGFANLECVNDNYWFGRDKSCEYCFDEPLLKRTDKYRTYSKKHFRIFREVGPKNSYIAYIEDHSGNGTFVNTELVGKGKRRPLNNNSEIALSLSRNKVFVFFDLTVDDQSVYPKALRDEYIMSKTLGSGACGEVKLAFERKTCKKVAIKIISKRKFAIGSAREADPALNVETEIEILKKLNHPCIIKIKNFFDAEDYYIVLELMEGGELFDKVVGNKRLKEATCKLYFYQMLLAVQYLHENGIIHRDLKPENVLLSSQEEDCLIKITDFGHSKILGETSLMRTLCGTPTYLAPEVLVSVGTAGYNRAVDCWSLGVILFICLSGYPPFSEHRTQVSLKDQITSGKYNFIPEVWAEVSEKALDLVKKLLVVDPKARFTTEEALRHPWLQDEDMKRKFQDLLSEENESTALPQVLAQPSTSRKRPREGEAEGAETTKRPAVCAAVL
T8 sequence (O94804 whole entry, the tested form may be a part): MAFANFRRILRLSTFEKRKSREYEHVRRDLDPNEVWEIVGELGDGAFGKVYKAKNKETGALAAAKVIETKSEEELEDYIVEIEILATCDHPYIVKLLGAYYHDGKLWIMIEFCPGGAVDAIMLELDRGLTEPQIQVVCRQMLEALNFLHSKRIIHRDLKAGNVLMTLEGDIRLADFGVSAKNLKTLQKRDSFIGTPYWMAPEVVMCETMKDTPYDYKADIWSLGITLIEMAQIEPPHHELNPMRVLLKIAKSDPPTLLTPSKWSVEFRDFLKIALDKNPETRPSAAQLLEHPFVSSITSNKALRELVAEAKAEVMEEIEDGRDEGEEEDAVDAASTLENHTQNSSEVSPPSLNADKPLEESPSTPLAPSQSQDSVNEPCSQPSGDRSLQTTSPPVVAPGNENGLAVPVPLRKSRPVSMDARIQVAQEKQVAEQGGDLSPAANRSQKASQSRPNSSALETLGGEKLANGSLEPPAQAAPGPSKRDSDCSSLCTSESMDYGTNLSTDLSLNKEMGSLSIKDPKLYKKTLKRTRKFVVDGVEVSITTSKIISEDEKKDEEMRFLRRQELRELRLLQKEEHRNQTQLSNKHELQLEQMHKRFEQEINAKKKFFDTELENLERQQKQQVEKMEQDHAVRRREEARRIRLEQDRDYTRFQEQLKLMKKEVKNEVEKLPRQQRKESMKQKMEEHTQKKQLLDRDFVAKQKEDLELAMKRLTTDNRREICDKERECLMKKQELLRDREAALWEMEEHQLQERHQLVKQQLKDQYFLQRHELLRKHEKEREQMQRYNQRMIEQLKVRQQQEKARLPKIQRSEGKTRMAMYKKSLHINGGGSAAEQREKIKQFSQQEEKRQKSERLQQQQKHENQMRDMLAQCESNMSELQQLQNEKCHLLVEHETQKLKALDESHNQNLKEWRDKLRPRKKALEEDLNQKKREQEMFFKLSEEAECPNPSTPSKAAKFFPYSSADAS
T14 sequence (P45984 whole entry, the tested form may be a part): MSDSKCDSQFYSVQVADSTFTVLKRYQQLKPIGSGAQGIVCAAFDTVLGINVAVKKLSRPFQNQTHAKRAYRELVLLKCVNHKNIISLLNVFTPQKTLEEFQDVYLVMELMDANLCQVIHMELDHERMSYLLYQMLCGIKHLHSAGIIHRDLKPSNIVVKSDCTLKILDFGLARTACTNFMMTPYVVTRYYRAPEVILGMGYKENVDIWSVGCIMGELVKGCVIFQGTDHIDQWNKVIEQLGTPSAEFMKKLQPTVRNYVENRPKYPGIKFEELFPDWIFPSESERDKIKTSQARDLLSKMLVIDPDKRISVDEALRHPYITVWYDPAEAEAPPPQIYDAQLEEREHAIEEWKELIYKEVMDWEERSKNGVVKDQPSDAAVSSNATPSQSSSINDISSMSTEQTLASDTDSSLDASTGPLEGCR
T3 sequence (O43293 whole entry, the tested form may be a part): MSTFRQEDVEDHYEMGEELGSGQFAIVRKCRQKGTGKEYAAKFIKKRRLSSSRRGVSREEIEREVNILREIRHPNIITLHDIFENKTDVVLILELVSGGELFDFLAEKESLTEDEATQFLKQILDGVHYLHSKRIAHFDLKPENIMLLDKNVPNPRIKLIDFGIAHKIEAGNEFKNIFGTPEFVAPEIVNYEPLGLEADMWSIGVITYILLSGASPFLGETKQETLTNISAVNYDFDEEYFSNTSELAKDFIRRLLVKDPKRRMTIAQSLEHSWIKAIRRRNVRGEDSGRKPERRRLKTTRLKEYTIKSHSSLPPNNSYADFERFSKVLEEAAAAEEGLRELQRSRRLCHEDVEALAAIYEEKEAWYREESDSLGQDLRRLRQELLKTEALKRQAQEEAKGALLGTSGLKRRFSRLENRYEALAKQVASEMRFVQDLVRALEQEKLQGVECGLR

Turning to `Cc1ccc(C(=O)Nc2ccc(CN3CCN(C)CC3)c(C(F)(F)F)c2)cc1C#Cc1c[nH]c2ncnc(N3CCOCC3)c12` [Compound 1], the dTm amounted to 0.98 K in [1]; 8.08 K in assay [2]; 0.53 K in assay [3]; 0.19 K in [4]; 0.30 K in assay [5]; 2.19 K in assay [6]. Also, the dTm was 2.57 K in assay [7]; 14.26 K in assay [8]; -0.0556 K in assay [9]; 15.46 K in [10]; 4.55 K in assay [11]; 3.06 K in assay [12]. Further, the values for the dTm in assay [13], in assay [14] and in assay [15] were 7.61 K, 5.51 K and -0.08 K, respectively.

As to `O=C(Nc1ccc(F)cc1)C1(C(=O)Nc2cccc(-c3c[nH]c4ncnc(N5CCOCC5)c34)c2)CC1` [Compound 2], the dTm in assay [1] is -0.43 K; in assay [2], 14.87 K; in assay [3] it was 7.00 K; in assay [4], 6.81 K; in assay [5], 0.07 K; in assay [6], -0.94 K. Also, the dTm was 0.23 K in assay [7]; 12.98 K in [8]; 1.25 K in assay [9]; 4.13 K in assay [10]; -0.56 K in [11]; 3.27 K in assay [12]. Further, the dTm is 5.05 K in assay [13], 2.87 K in assay [14] and 6.40 K in assay [15].

Turning to `O=C(Nc1cccc(-c2c[nH]c3ncnc(N4CCOCC4)c23)c1)c1cccn(-c2ccc(F)cc2)c1=O` [Compound 4], the dTm in assay [1] was -1.23 K; in assay [2], 12.90 K; in [3], 5.01 K; in assay [4] it was 6.49 K; in assay [5] it was -0.31 K; in [6] it was 0.41 K. The dTm was -0.19 K in assay [7]; 11.47 K in assay [8]; 0.57 K in assay [9]; 3.03 K in [10]; 7.48 K in [11]; 1.95 K in assay [12]. Also, the results for the dTm in assay [13], in [14] and in [15] were 7.31 K, 5.57 K and -5.10 K, respectively.

With `Cc1cc(NC(=O)C2(C(=O)Nc3ccc(F)cc3)CC2)cc(-c2c[nH]c3ncnc(N4CCOCC4)c23)c1` [Compound 6], the dTm is reported as -1.48 K in assay [1]; 11.24 K in assay [2]; 3.25 K in assay [3]; 0.00 K in [4]; 0.64 K in assay [5]; 1.05 K in assay [6]. Moreover, the dTm is 0.88 K in assay [7]; 11.03 K in assay [8]; 3.01 K in [9]; 1.23 K in assay [10]; 2.20 K in assay [11]; 0.52 K in [12]. Further, the results for the dTm in assay [13], in assay [14] and in [15] were 0.00 K, 2.51 K and 2.54 K, respectively.

For the molecule `O=C(Nc1cccc(-c2c[nH]c3ncnc(N4CCOCC4)c23)c1)C1(C(=O)Nc2cccc3c2CCC3)CC1` [Compound 11], the dTm in [1] is recorded as -2.96 K; in assay [2], 10.76 K; in assay [3], 3.33 K; in assay [4], 0.00 K; in assay [5] it was 0.60 K; in assay [6], 0.61 K. Moreover, the dTm is reported as 0.47 K in assay [7]; 10.54 K in assay [8]; 2.70 K in assay [9]; 1.65 K in assay [10]; 5.69 K in assay [11]; -0.63 K in assay [12]. Besides, the values for the dTm in [13], in [14] and in assay [15] were -11.70 K, 4.16 K and 1.05 K, respectively.

With `Cc1ccc(C(=O)Nc2ccc(CN3CCN(C)CC3)c(C(F)(F)F)c2)cc1C#Cc1cnc2[nH]ncc2c1` [GZD-824, reference compound], the dTm in assay [1] is listed as 0.04 K; in assay [2], 5.45 K; in [3] it was 0.50 K; in assay [4], -1.15 K; in assay [5], -0.21 K; in assay [6], 0.45 K. For the same molecule, the dTm was determined as 9.39 K in assay [7]; 0.30 K in assay [9]; 5.84 K in [10]; 2.46 K in [11]; 5.77 K in assay [12]; 4.50 K in assay [13]. Also, the results for the dTm in assay [14] and in assay [15] were 4.93 K and 1.79 K, respectively.

Consider `Cc1ccc(C(=O)Nc2ccc(CN3CCN(C)CC3)c(C(F)(F)F)c2)cc1C#Cc1cnc2cccnn12` [Ponatinib, reference compound], for which the dTm in assay [4] is -1.68 K; in [7], 9.86 K.

Take `CN[C@@H]1C[C@H]2O[C@@](C)([C@@H]1OC)n1c3ccccc3c3c4c(c5c6ccccc6n2c5c31)C(=O)NC4` [Staurosporine]: the dTm in [1] stood at 8.53 K; in [2], 14.15 K; in assay [6], 16.71 K; in assay [8], 22.21 K; in assay [9] it was 12.74 K; in [12] it was 12.42 K.
